# Reference: paper PMC4168258 (Biochemical pharmacology, 2014)
# Columns and labels:
# [1] = biological target: CYP2C9 (Homo sapiens, UniProt P11712); test: Kinetic study of metabolite formation by recombinant CYP2C9; conditions: recombinant CYP2C9 incubations
# [2] = cited from earlier work
# [3] = cited from earlier work; remark: listed apart in the source
# [4] = mouse, in vivo, po, 40 mg/kg
# Sequence of CYP2C9 (P11712 whole entry): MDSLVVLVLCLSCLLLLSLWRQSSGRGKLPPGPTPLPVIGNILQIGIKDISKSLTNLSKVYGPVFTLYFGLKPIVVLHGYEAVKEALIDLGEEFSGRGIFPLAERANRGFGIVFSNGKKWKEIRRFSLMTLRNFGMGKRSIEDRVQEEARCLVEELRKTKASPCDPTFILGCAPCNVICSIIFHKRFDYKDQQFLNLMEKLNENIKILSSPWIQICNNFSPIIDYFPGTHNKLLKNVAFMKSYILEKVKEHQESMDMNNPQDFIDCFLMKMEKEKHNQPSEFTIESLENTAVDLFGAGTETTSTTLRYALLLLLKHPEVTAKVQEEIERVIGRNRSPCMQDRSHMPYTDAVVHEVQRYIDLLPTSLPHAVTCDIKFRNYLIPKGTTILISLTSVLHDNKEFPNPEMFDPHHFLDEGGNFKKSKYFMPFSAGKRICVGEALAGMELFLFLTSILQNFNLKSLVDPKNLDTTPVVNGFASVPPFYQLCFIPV
compound,measurement,setting,value
O=C(C1CCCCC1)N1CC(=O)N2CCc3ccccc3[C@@H]2C1 [(R)-PZQ],production of metabolite V,[1],not detected
same,side effects compared with racemic PZQ,[2]; single administration of 20 mg/kg vs 40 mg/kg racemic,fewer side effects
same,activity compared with 40 mg/kg of racemic PZQ,[2]; single administration of 20 mg/kg,same activity
O=C(C1CCCCC1)N1CC(=O)N2CCc3ccccc3[C@H]2C1 [(S)-PZQ],systemic levels compared with (R)-PZQ,[3],higher
"O=C(C1CCC(O)CC1)N1CC(=O)N2CCc3ccccc3C2C1 (centres unmarked) [III, 4-OH PZQ]",Source (matrix in which detected),[4],"urine, feces"
